This note sets out measurements from ChEMBL document CHEMBL1154906, “Additional insights on the bastadins: isolation of analogues from the sponge Ianthella cf. reticulata and exploration of the oxime configurations” (J Nat Prod, 2010).

In test [1] the test system is HCT-116. In words: Cytotoxicity against human HCT116 cells after 7 days by methylene blue staining. In kind it is functional, cell-based.
In test [2] the test system is Trypanosoma brucei brucei. In words: Antitrypanosomal activity against Trypanosoma brucei brucei 221 after 48 hrs by ATP-bioluminescence assay. The settings on record: for IC50: Trypanosoma brucei, 221, 48 h. In kind it is functional, organism-based.

As usually defined, the IC50 is the concentration that gives 50% inhibition. A higher IC50 goes with a need for much substance.

The structures appear in SMILES notation. Calls of active or inactive are those of the source. No cut-off for these calls is given here.

As to `O=C(NCCc1ccc(O)c(Br)c1)/C(Cc1cc(Br)c(O)c(-c2cc(C/C(=N/O)C(=O)NCCc3ccc(O)c(Br)c3)cc(Br)c2O)c1)=N\O`, the outcome in test [1] was inactive.
On the same count and under the same terms, for `O=C(NCCc1ccc(O)c(Br)c1)/C(Cc1cc(Br)c2c(c1)-c1cc(C/C(=N\O)C(=O)NCCc3ccc(O)c(Br)c3)cc(Br)c1OCO2)=N\O` the value was “inactive”.
In the case of `O=C1NCCc2cc(Br)c(O)c(c2)Oc2ccc(cc2Br)CCNC(=O)/C(=N\O)Cc2cc(Br)c(O)c(c2)Oc2c(Br)cc(cc2Br)C/C1=N/O`, the outcome in test [1] and in test [2] was inactive.
Take `O=C1NCCc2cc(Br)c(O)c(c2)Oc2c(Br)cc(cc2Br)CCNC(=O)/C(=N/O)Cc2cc(Br)c(O)c(c2)Oc2c(Br)cc(cc2Br)C/C1=N\O`: the outcome in test [1] and in test [2] was inactive.
In the case of `O=C(NCCc1ccc(O)c(Br)c1)/C(Cc1cc(Br)c(O)c(Oc2c(Br)cc(C/C(=N\O)C(=O)NCCc3ccc(O)c(Br)c3)cc2Br)c1)=N\O`, in test [2], the result was inactive.
`O=C1N/C=C/c2ccc(c(Br)c2)Oc2cc(cc(Br)c2O)CCNC(=O)/C(=N/O)Cc2cc(Br)c(c(Br)c2)Oc2cc(cc(Br)c2O)C/C1=N\O` [BASTADIN 4] had an IC50 in test [1] (HCT-116, 168 h) of 1280 nM. In test [2], the result was inactive.
Consider `O=C1N/C=C/c2ccc(c(Br)c2)Oc2cc(cc(Br)c2O)CCNC(=O)/C(=N/O)Cc2ccc(c(Br)c2)Oc2cc(cc(Br)c2O)C/C1=N\O`, for which the result in test [2] was inactive.
On to `O=C1NCCc2ccc(c(Br)c2)Oc2cc(ccc2O)CCNC(=O)/C(=N/O)Cc2cc(Br)c(O)c(c2)Oc2c(Br)cc(cc2Br)C/C1=N\O` [BASTADIN 13], for which half-maximal inhibition in test [2] (IC50) was put at 1770 nM.
As for `O=C1NCCc2ccc(c(Br)c2)Oc2cc(cc(Br)c2O)CCNC(=O)/C(=N/O)Cc2cc(Br)c(O)c(c2)Oc2c(Br)cc(cc2Br)C/C1=N\O` [BASTADIN 19], in test [1], the result was inactive. The same molecule returned an IC50 in test [2] of 1310 nM.
As to `O=C1NCCc2ccc(c(Br)c2)Oc2cc(cc(Br)c2O)CCNC(=O)/C(=N/O)Cc2cc(Br)c(O)c(c2)Oc2c(Br)cc(cc2Br)C/C1=N/O`, the result in test [1] was inactive.
Consider `O=C1NCCc2cc(Br)c(O)c(c2)Oc2ccc(cc2Br)[C@H](O)CNC(=O)/C(=N/O)Cc2cc(Br)c(O)c(c2)Oc2c(Br)cc(cc2Br)C/C1=N\O`, for which the outcome in test [2] was inactive.
Same read-out and setting: to `O=C1NCCc2cc(Br)c(O)c(c2)Oc2ccc(cc2)CCNC(=O)/C(=N/O)Cc2cc(Br)c(O)c(c2)Oc2c(Br)cc(cc2Br)C/C1=N\O` belongs “inactive”.
